One experiment relates to apoE −/− mice. Put plainly: ApoE−/− mice flow cessation model (ligated carotid, Western diet). It is filed as in vivo. The source says: FIG. 17A-J: Dose-response effect of P2Y13 agonist on atherosclerotic plaque progression in ApoE^−/− mice. ApoE^−/− mice (n=7) were ligated on the upper part of the left carotids. On the day of the surgery the animals were placed on a Western diet and given an oral gavage of vehicle or increasing doses of Compound IIa. Ligated carotids were lipid extracted in 2:1 chloroform/methanol. FIG. 17A: the concentrations in unesterified cholesterol (dark bars) and total cholesterol (superimposed gray bars) were measured by HPLC. FIG. 17E and FIG. 17H: hematoxylin eosin staining of longitudinal sections of ApoE^−/− mice carotids. FIG. 17F and FIG. 17I: Oil Red O staining of longitudinal sections of ApoE^−/− mice carotids. FIG. 17G and FIG. 17J: CD-68 antibody staining of longitudinal sections of ApoE^−/− mice carotids. FIG. 17B: quantification of the intima/media ratio (n=10). FIG. 17C: Oil Red O positive staining quantification (n=10). FIG. 17D: CD68 antibody staining quantification (n=10). The mice were dosed for 2 weeks with vehicle (FIG. 17E, FIG. 17F and FIG. 17G) or Compound IIa at 100 μg/kg (FIG. 17H, FIG. 17I and FIG. 17J).
ApoE^−/− mice “flow cessation model”: Left carotid of apoE^−/− mice were ligatured and placed on Western diet. These mice were given Compound IIa once a day at 100 μg/kg (0.5% CMC, 0.2% Tween80) for 2 weeks.
The left carotid fixed in formalin was embedded in OCT and frozen at −20° C. Four step frozen sections of 50 μm separated one from the other were processed and stained with Oil red O (ORO). Macrophages were detected using primary rat monoclonal anti CD-68 antibody (Abcam).
The effect of the stimulation of the P2Y13r pathway by the agonists on the atherosclerotic plaque lesions in apoE −/− mice that are very susceptible to develop atherosclerosis on a short term Western (i.e. high-cholesterol) diet was investigated. […] The quantification of plaque components by histo-pathological analysis of the treated carotids with hematoxylin-eosin (FIG. 17B, E, H), oil-red O staining (FIG. 17C, F, I) and with CD68 antibody (specific of the macrophages), (FIG. 17D, G, J) further confirmed this observation.

The next experiment concerns apoE−/− mice. The experiment is described as follows: ApoE−/− high-cholesterol diet model (aorta plaque progression). It is filed as in vivo. The note with it: 8 weeks diet then 4 weeks 100 μg/kg/day. The procedure: FIG. 19A-L: Effect of P2Y13 agonist on atherosclerotic plaque progression in aortas of apoE^−/− mice. ApoE^−/− mice (n=20) were placed on a Western diet for 8 weeks followed by a 4 weeks oral gavage of vehicle or 100 μg/kg of Compound IIa. Aortas (n=10) were lipid extracted in 2:1 chloroform/methanol. FIG. 19A: the concentrations in total cholesterol were measured by HPLC and GC/MS and compared to parallel apoE−/− mice (n=10) on normal Chow diet as a baseline. FIG. 19B: quantification of the intima/media ratio (n=10). FIG. 19C: F4/80 antibody staining quantification (n=10). FIG. 19D: Oil Red O positive staining quantification (n=10). FIG. 19E: quantification of Sirius Red staining (n=10). FIG. 19F: anti-VCAM1 antibody staining quantification (n=10). The quantifications were expressed as the percentage of staining as compared to the sum of the intima and media area. *p<0.05. FIG. 19G to FIG. 19L: typical example of staining of aorta slides used for the quantifications. FIG. 19G and FIG. 19J: hematoxylin eosin staining of transversal sections of apoE^−/− mice aortas. FIG. 19H and FIG. 19K: Oil Red O staining of transversal sections of apoE^−/− mice aortas. FIG. 19I and FIG. 19L: VCAM1 antibody staining of transversal sections of apoE^−/− mice aortas.
Mice were placed for two month on Western diet (0.2% cholesterol, 21% butter milk) then dosed with Compound IIa once a day at 100 μg/kg (0.5% CMC, 0.2% Tween80) for 4 more weeks. The mice were sacrificed and the aortas were collected for biochemical and immunohistological characterizations. One set of aorta (n=10) was detached at the base of the heart and placed in a glass tube with 3 ml of chloroform-methanol 2:1 (v/v), and stigmasterol as the internal standard. Then analyzed as described above. Another set of aortas (n=10) were first extensively washed with PBS, then with 4% paraformaldehyde (500 μl) and finally with tissue tek OCT (500 μl). Next the aorta was embedded in OCT and frozen at −20° C. Three step frozen sections of 10 μm separated one from the other were processed and stained with Oil red O (ORO), Sirius red and hematoxylin/eosin. Macrophages were detected using F4/80 primary rat monoclonal antibody (Abcam) and VCAM was detected using rat anti mouse CD106 (AbDSerotec).
The prevention of progression of the plaque in aorta was further evaluated in the cholesterol diet-fed apoE−/− mice (FIG. 19). […] The collagen content of the wall was improved (FIG. 19E).

Molecules are shown by their SMILES.

For the compound `CN(C)c1ncc(CN2CCC(c3cc(O)nc(N4CCOCC4)n3)CC2)cn1` [Compound IIa, 6-[1-(2-Dimethylaminopyrimidin-5-ylmethyl)-piperidin-4-yl]-2-morpholin-4-yl-pyrimidin-4-ol], the “cholesterol deposit in non-inflammatory right carotids” value in the experiment on apoE −/− mice (100 μg/kg, vehicle 18.2+/−3.6) is given as 7.5+/−3.4 nmole/mg of tissue. Further, the “progression of the atherosclerosis lesions (lesion cholesterol content) compared to control animals” value in the experiment with apoE −/− mice (oral dosing for 2 weeks along with high-cholesterol diet, ligated carotid) is listed as “dose-dependent inhibition”. The “inhibition of the atherosclerosis progression in mice” value in the experiment on apoE −/− mice (summary statement) is “dramatic effect”. The “lipid content of the carotids (staining)” value in the experiment with apoE −/− mice (treated animals, 2 weeks) is “decrease”. Further, in the experiment on apoE−/− mice, the “VCAM1 expression (antibody CD106)” value is “significant decreases”, the “cholesterol content of aorta” value was “significant decreases”, the “collagen content of the wall” value is given as “improved” and the “lipid staining of aorta” value is listed as “decrease”. Besides, in the experiment on apoE−/− mice, the “macrophage content (F4/80 antibody) of the aortic wall and the plaque” value is reported as “decreased”; the “plaque area in aorta” value was “significant decreases”.

The values above are taken from US10220040B2, “Compounds, compositions and methods useful for cholesterol mobilization” (Cerenis Therapeutics Holding SA, priority 2010, dated 2019).
